{"source": "paper PMC4459817", "about": "“Vasculotide reduces endothelial permeability and tumor cell extravasation in the absence of binding to or agonistic activation of Tie2” (EMBO Molecular Medicine, 2015)", "key": {"endothelial cells": {"test_system": "endothelial cells", "conditions": "cells stimulated with sepsis-related mediators incl. thrombin; ref David et al, 2011; cited from earlier work", "excerpt": "Thrombin is also a metastasis-associated factor that can promote endothelial adhesion and diapedesis of TCs (Nierodzik & Karpatkin, [2006])."}, "[1]": {"test_system": "human microvascular ECs of dermal blood vessel origin (HMVEC-DBl)", "assay": "modified Boyden chamber, thrombin-stimulated FITC-dextran permeability, HMVEC-DBl", "type": "cell-based", "conditions": "Fig1D", "description": "ECs were first treated with Vasculotide (VT), PBS (vehicle/negative control), Ang1 (positive control), PEG-Cys (polyethylene glycol backbone), T7c (non-PEGylated CHHHRHSF peptides), or VT in the presence of 100-fold molar excess of T7c. The concentrations used, 10–20 ng/mL VT and 200–400 ng/mL Ang1, are estimated molar equivalents (0.71–1.43 nM). Thirty minutes later, ECs were stimulated with thrombin, 0.1% BSA (vehicle/negative control), or EDTA (positive control). Another 30mins later, the amount of FITC-dextran diffusion into the lower chambers (A, D) provides a measure of endothelial permeability. CMTPX-labeled tumor cells (TCs) were then dispensed into inserts, and the amount of TC fluorescence emitting from the underside of insert membranes after 20 h (B–C) or 28 h (E) reflects the efficiency of trans-endothelial TC migration. Representative fluorescent images (10×) of membrane undersides are shown in (C), where DAPI-stained nuclei of ECs/TCs are shown in blue, ‘extravasated’ CMTPX-labeled TCs are shown in red, and the # of CMTPX^+ pixels are shown numerically in red. Means ± SEM are shown (A,B,D,E). Three experiments (twice with HMVEC-LBl and once with HMVEC-DBl) were run with n = 3–5 inserts (independent biological replicates) per group and analyzed by two-sampled unpaired t-tests. […]\nEndothelial cells (ECs) were grown on cell culture inserts with uncoated 8-μm-pore PET filter membranes to 100% confluency. […] After 30 min of thrombin stimulation or 4–6 h of TC-CM stimulation, FITC fluorescence (ex/em = 490/520 nm) was measured from a 50 μl sample of the lower chamber media. […] CMPTX fluorescence from migrated TCs was then quantified from 10× microscopy images using a MATLAB (MathWorks, Natick, MA, USA) script; five images (technical replicates) were analyzed per insert. […]"}}}
{"sequence": "CHHHRHSF [Vasculotide, 4-armed maleimide-functionalized polyethylene glycol (PEG) backbone to link together four cysteine-capped T7 peptides, that is, CHHHRHSF]", "values": [{"measurement": "endothelial barrier integrity", "setting": "endothelial cells", "value": "preserve endothelial barrier integrity"}, {"measurement": "anti-permeability effect of VT in presence of 100-fold molar excess of T7c", "setting": "[1]; HMVEC-DBl", "value": "dampened the effects of VT"}, {"measurement": "transendothelial permeability of FITC-dextran", "setting": "[1]; thrombin-stimulated HMVEC-DBl, VT 10–20 ng/mL, FITC fluorescence ex/em 490/520 nm, n = 3–5 inserts", "value": "counteract thrombin-stimulated increases in transendothelial permeability of FITC-dextran (P < 0.05"}]}
